The record followed here is PubChem BioAssay AID1996.

Values after ≈ are worked out from the molar mass of the structure shown.

The conditions of this data set: buffer; pH 7.4; 200.0 µM.
Molecule `COc1cccc(C(=O)NCc2ccco2)c1` gave a solubility (kinetic) greater than 34.7 µg/mL. Next, `Cc1cc(O)cc(=O)n1Cc1ccccc1`: greater than 32.3 µg/mL; `CC(=O)CC1(O)C(=O)Nc2ccccc21` (configuration not stated): 27.6 µg/mL (≈ 134 µM); `COc1cccc(NC(=O)Nc2cccnc2)c1`: greater than 36.5 µg/mL.

Regarding `O=C(N/N=C/c1cc(Cl)cc([N+](=O)[O-])c1O)C1CC1`, the solubility (kinetic) was greater than 42.6 µg/mL. Next, `S=C(NCCc1ccc(Cl)cc1)NCc1ccccc1`: 16.7 µg/mL (≈ 54.8 µM); `Cc1nc(SCC(=O)Nc2cccc(S(=O)(=O)N3CCOCC3)c2)nc(C)c1C`: 29.5 µg/mL (≈ 67.6 µM); `Cc1cc(C)n2nc(SCC(=O)N3CCCCC3C)nc2n1` (configuration not stated): greater than 47.9 µg/mL. Under `Cc1c(NC(=O)c2ccccc2NC(=O)c2ccccc2)cccc1C(=O)O` stands 54.5 µg/mL (≈ 146 µM). Next, `Cc1ccc(CC(=O)NCCN2CCOCC2)cc1`: greater than 39.4 µg/mL. The molecule `Cc1ccc(S(=O)(=O)N2CCC(C(=O)NC3CC3)CC2)cc1` showed a kinetic solubility greater than 48.4 µg/mL.

Regarding `Fc1ccc(OCCOCCOc2cccc3[nH]ccc23)cc1`, the kinetic solubility stood at 16.3 µg/mL (≈ 51.7 µM). Next, `Cc1ccc(C(=O)NC(C)C(c2cccs2)N2CCCC2)s1` (configuration not stated): greater than 50.2 µg/mL; `Nc1cc(N)nc(SCC(=O)NNC(=O)Cc2ccccc2)n1`: greater than 49.9 µg/mL. Consider `COc1cc2c(cc1OC)C(c1ccc(Br)cc1)NC(=O)C2` (configuration not stated), for which the kinetic solubility came to 45.2 µg/mL (≈ 125 µM). Next, `CC(=O)Nc1ccc(N2CCN(Cc3ccccc3)CC2)cc1`: 43.5 µg/mL (≈ 141 µM); `NS(=O)(=O)c1cc(C(=O)OC2CCOC2=O)ccc1Cl` (configuration not stated): greater than 48 µg/mL. Under `CCCCNc1c(N)n(CCC)c(=O)[nH]c1=O` stands greater than 36 µg/mL; under `CCN(c1cccc(C)c1)S(=O)(=O)c1csc(C(N)=O)c1`, greater than 48.7 µg/mL; under `COCCNc1nc(C)c(C(C)=O)s1`, 25.7 µg/mL (≈ 120 µM). Consider `CC(C)CN1C2CCCC1CC(NC(=S)NCc1ccco1)C2` (configuration not stated), for which the kinetic solubility is greater than 50.3 µg/mL. In turn, `CCn1ccnc1CN1CCCC(C(=O)c2ccc(OC)cc2OC)C1` (configuration not stated) showed a solubility (kinetic) of 48.7 µg/mL (≈ 136 µM). Molecule `O=C(/C=C/c1ccco1)Nc1ccc2c(c1)OCO2` showed a kinetic solubility of 36.8 µg/mL (≈ 143 µM). The solubility kinetic values of the last two molecules are within 1.5-fold of each other.

As for `Cc1ccccc1C(=O)NCCN1CCOCC1.Cl`, the solubility (kinetic) is greater than 42.7 µg/mL. Next, `O=C(COC(=O)c1ccc([N+](=O)[O-])cc1)NCCC1=CCCCC1`: 3.1 µg/mL (≈ 9.33 µM); `O=C(C1CCCN1S(=O)(=O)c1ccc(Cl)cc1)N1CCN(c2ccccc2)CC1` (configuration not stated): 15.3 µg/mL (≈ 35.3 µM); `COc1ccc2oc(=Nc3cc(F)ccc3F)c(C(N)=O)cc2c1`: less than 0.4 µg/mL. In the case of `CC1Cc2ccccc2N1C(=O)c1ccc2c(c1)OCO2` (configuration not stated), the solubility (kinetic) is greater than 42.2 µg/mL. Next, `COc1ccc(C(=O)NCCCOc2cccc(NC(C)=O)c2)cc1`: greater than 51.4 µg/mL; `O=C(c1cc(-c2ccccc2Cl)on1)N1CCCC1`: greater than 41.5 µg/mL.

For `O=c1oc(-c2ccccc2F)nc2scc(-c3ccccc3)c12`, the kinetic solubility was less than 0.7 µg/mL. `O=C(CCNC(=O)c1ccc(Cl)cc1)Nc1ncccc1O` yielded a kinetic solubility of 45 µg/mL (≈ 141 µM). Under `S=C(NCC1CCCO1)N1CCN(Cc2ccccc2Cl)CC1` (configuration not stated) stands greater than 53.1 µg/mL; under `CS(=O)(=O)N(CC(=O)NCCSC1CCCCC1)c1ccccc1`, 40.5 µg/mL (≈ 109 µM); under `NC(=O)c1c(/N=C/c2cccs2)sc2c1CCCC2`, 18.4 µg/mL (≈ 63.4 µM).

`CCOc1cc(C(=O)NC)cc(Br)c1OC`: the solubility (kinetic) is greater than 43.2 µg/mL. In the case of `Cc1ccc(S(=O)(=O)N(C)C)cc1NC(=O)C(C)OC(=O)C1CCCCC1` (configuration not stated), the kinetic solubility was greater than 59.5 µg/mL. Molecule `CCC(=O)Nc1ccc(C2C(=O)c3ccccc3C2=O)cc1` yielded a solubility (kinetic) greater than 44 µg/mL. Under `Cc1ccc(S(=O)(=O)Nc2c(C)nn(C)c2C)c(C)c1` stands greater than 44 µg/mL; under `CCOC(=O)Cn1c(C)cc(COC)c(C#N)c1=O`, greater than 39.6 µg/mL. Next, `COc1ccccc1NS(=O)(=O)c1cccc2nsnc12`: 35 µg/mL (≈ 109 µM); `Cl.Oc1cccc(Nc2c3ccccc3nc3ccccc23)c1`: 0.7 µg/mL.

As a reminder, the kinetic solubility is the concentration staying in solution when a stock, usually in DMSO, is diluted into the medium.
